Laboratory results from PubChem BioAssay AID1259407 (Chemical Carcinogenesis Research Information System (CCRIS), 2018).
Active and inactive are the calls of the source. The rule behind the calls is not given here.

System: CCRIS mutagenicity, Ames/micronucleus/aberration tests
Assay: CCRIS mutagenicity studies
[1] = Test System: AMES SALMONELLA TYPHIMURIUM, Strain/Indicator: TA100, Metabolic Activation: NONE, Method: PREINCUBATION
[2] = Test System: AMES SALMONELLA TYPHIMURIUM, Strain/Indicator: TA100, Metabolic Activation: RAT, LIVER, S-9, AROCLOR 1254, Method: STANDARD PLATE
[3] = Test System: AMES SALMONELLA TYPHIMURIUM, Strain/Indicator: TA1535, Metabolic Activation: RAT, LIVER, S-9, AROCLOR 1254, Method: STANDARD PLATE
[4] = Test System: AMES SALMONELLA TYPHIMURIUM, Strain/Indicator: TA98, Metabolic Activation: NONE, Method: PREINCUBATION
[5] = Test System: AMES SALMONELLA TYPHIMURIUM, Strain/Indicator: TA1535, Metabolic Activation: NONE, Method: PREINCUBATION
[6] = Test System: AMES SALMONELLA TYPHIMURIUM, Strain/Indicator: TA1538, Metabolic Activation: NONE, Method: STANDARD PLATE
[7] = Test System: AMES SALMONELLA TYPHIMURIUM, Strain/Indicator: TA1538, Metabolic Activation: RAT, LIVER, S-9, AROCLOR 1254, Method: STANDARD PLATE
[8] = Test System: AMES SALMONELLA TYPHIMURIUM, Strain/Indicator: TA100, Metabolic Activation: NONE, Method: STANDARD PLATE
[9] = Test System: AMES SALMONELLA TYPHIMURIUM, Strain/Indicator: TA1535, Metabolic Activation: NONE, Method: STANDARD PLATE
[10] = Test System: AMES SALMONELLA TYPHIMURIUM, Strain/Indicator: TA98, Metabolic Activation: NONE, Method: STANDARD PLATE
[11] = Test System: AMES SALMONELLA TYPHIMURIUM, Strain/Indicator: TA98, Metabolic Activation: RAT, LIVER, S-9, AROCLOR 1254, Method: STANDARD PLATE
[12] = Test System: AMES SALMONELLA TYPHIMURIUM, Strain/Indicator: TA1537, Metabolic Activation: NONE, Method: STANDARD PLATE
[13] = Test System: AMES SALMONELLA TYPHIMURIUM, Strain/Indicator: TA1537, Metabolic Activation: RAT, LIVER, S-9, AROCLOR 1254, Method: STANDARD PLATE

## O=P1(NCCCl)OCCCN1CCCl (stereo not given)
Test System: AMES SALMONELLA TYPHIMURIUM, Strain/Indicator: TA100, Metabolic Activation: NADPH, Method: PREINCUBATION
  mutagenic call: active; positive
[1]
  mutagenic call: active; positive
Test System: AMES SALMONELLA TYPHIMURIUM, Strain/Indicator: TA100, Metabolic Activation: RAT, LIVER, HEPATOCYTES, PHENOBARBITAL, Method: PREINCUBATION
  mutagenic call: inactive; negative
[2]
  mutagenic call: active; positive
Test System: AMES SALMONELLA TYPHIMURIUM, Strain/Indicator: TA100, Metabolic Activation: RAT, LIVER, S-9, PHENOBARBITAL, NADPH, Method: PREINCUBATION
  mutagenic call: active; positive
Test System: AMES SALMONELLA TYPHIMURIUM, Strain/Indicator: TA100, Metabolic Activation: RAT, LIVER, S-9, PHENOBARBITAL, Method: PREINCUBATION
  mutagenic call: active; positive
Test System: AMES SALMONELLA TYPHIMURIUM, Strain/Indicator: TA1535, Metabolic Activation: RAT, LIVER, HEPATOCYTES, PHENOBARBITAL, Method: PREINCUBATION
  mutagenic call: active; positive
[3]
  mutagenic call: active; positive

## Cc1nccnc1C
[4]
  mutagenic call: inactive; negative
Test System: AMES SALMONELLA TYPHIMURIUM, Strain/Indicator: TA98, Metabolic Activation: RAT, LIVER, S-9, AROCLOR 1254, Method: PREINCUBATION
  mutagenic call: inactive; negative
[1]
  mutagenic call: inactive; negative
Test System: AMES SALMONELLA TYPHIMURIUM, Strain/Indicator: TA100, Metabolic Activation: RAT, LIVER, S-9, AROCLOR 1254, Method: PREINCUBATION
  mutagenic call: inactive; negative
Test System: AMES SALMONELLA TYPHIMURIUM, Strain/Indicator: TA102, Metabolic Activation: NONE, Method: PREINCUBATION
  mutagenic call: inactive; negative
Test System: AMES SALMONELLA TYPHIMURIUM, Strain/Indicator: TA102, Metabolic Activation: RAT, LIVER, S-9, AROCLOR 1254, Method: PREINCUBATION
  mutagenic call: inactive; negative

## O=C(Cl)C(Cl)c1ccccc1 (stereo not given)
[4]
  mutagenic call: active; positive
Test System: AMES SALMONELLA TYPHIMURIUM, Strain/Indicator: TA98, Metabolic Activation: RAT LIVER S-9, PCB, Method: PREINCUBATION
  mutagenic call: active; positive
[1]
  mutagenic call: active; positive
Test System: AMES SALMONELLA TYPHIMURIUM, Strain/Indicator: TA100, Metabolic Activation: RAT LIVER S-9, PCB, Method: PREINCUBATION
  mutagenic call: active; positive
Test System: AMES SALMONELLA TYPHIMURIUM, Strain/Indicator: TA104, Metabolic Activation: NONE, Method: PREINCUBATION
  mutagenic call: active; positive
Test System: AMES SALMONELLA TYPHIMURIUM, Strain/Indicator: TA104, Metabolic Activation: RAT LIVER S-9, PCB, Method: PREINCUBATION
  mutagenic call: active; positive
Test System: E.COLI, Strain/Indicator: WP2 UVRA, Metabolic Activation: NONE, Method: PREINCUBATION
  mutagenic call: active; positive
Test System: E.COLI, Strain/Indicator: WP2 UVRA, Metabolic Activation: RAT LIVER S-9, PCB, Method: PREINCUBATION
  mutagenic call: active; positive

## Oc1c(Br)c(Br)c(Br)c(Br)c1Br
Test System: AMES SALMONELLA TYPHIMURIUM, Strain/Indicator: TA98, Metabolic Activation: HAMSTER, LIVER, S-9, AROCLOR 1254 (10%), Method: PREINCUBATION
  mutagenic call: inactive; negative
[4]
  mutagenic call: inactive; negative
Test System: AMES SALMONELLA TYPHIMURIUM, Strain/Indicator: TA98, Metabolic Activation: RAT, LIVER, S-9, AROCLOR 1254 (10%), Method: PREINCUBATION
  mutagenic call: inactive; negative
Test System: AMES SALMONELLA TYPHIMURIUM, Strain/Indicator: TA100, Metabolic Activation: HAMSTER, LIVER, S-9, AROCLOR 1254 (10%), Method: PREINCUBATION
  mutagenic call: inactive; negative
[1]
  mutagenic call: inactive; negative
Test System: AMES SALMONELLA TYPHIMURIUM, Strain/Indicator: TA100, Metabolic Activation: RAT, LIVER, S-9, AROCLOR 1254 (10%), Method: PREINCUBATION
  mutagenic call: inactive; negative
Test System: AMES SALMONELLA TYPHIMURIUM, Strain/Indicator: TA1535, Metabolic Activation: HAMSTER, LIVER, S-9, AROCLOR 1254 (10%), Method: PREINCUBATION
  mutagenic call: inactive; negative
[5]
  mutagenic call: inactive; negative
Test System: AMES SALMONELLA TYPHIMURIUM, Strain/Indicator: TA1535, Metabolic Activation: RAT, LIVER, S-9, AROCLOR 1254 (10%), Method: PREINCUBATION
  mutagenic call: inactive; negative
Test System: AMES SALMONELLA TYPHIMURIUM, Strain/Indicator: TA1537, Metabolic Activation: HAMSTER, LIVER, S-9, AROCLOR 1254 (10%), Method: PREINCUBATION
  mutagenic call: inactive; negative
Test System: AMES SALMONELLA TYPHIMURIUM, Strain/Indicator: TA1537, Metabolic Activation: NONE, Method: PREINCUBATION
  mutagenic call: inactive; negative
Test System: AMES SALMONELLA TYPHIMURIUM, Strain/Indicator: TA1537, Metabolic Activation: RAT, LIVER, S-9, AROCLOR 1254 (10%), Method: PREINCUBATION
  mutagenic call: inactive; negative

## Nc1ccc(-c2ccc(-c3ccc(-c4ccc(N)cc4)cc3)cc2)cc1
[6]
  mutagenic call: inactive; negative
[7]
  mutagenic call: inactive; negative

## Clc1ccc(CCC2CO2)cc1 (stereo not given)
[1]
  mutagenic call: inactive; negative
[8]
  mutagenic call: active; positive
[5]
  mutagenic call: inactive; negative
[9]
  mutagenic call: active; positive

## O=[N+]([O-])C1=Cc2cccc3cccc(c23)O1
[10]
  mutagenic call: inactive; negative
Test System: AMES SALMONELLA TYPHIMURIUM, Strain/Indicator: TA98, Metabolic Activation: S-9, Method: STANDARD PLATE
  mutagenic call: inactive; negative
[8]
  mutagenic call: active; positive
Test System: AMES SALMONELLA TYPHIMURIUM, Strain/Indicator: TA100, Metabolic Activation: S-9, Method: STANDARD PLATE
  mutagenic call: inactive; negative

## Nc1ccccc1C(F)(F)F
[10]
  mutagenic call: inactive; negative
[11]
  mutagenic call: inactive; negative
[8]
  mutagenic call: inactive; negative
[2]
  mutagenic call: inactive; negative
[9]
  mutagenic call: inactive; negative
[3]
  mutagenic call: inactive; negative
[12]
  mutagenic call: inactive; negative
[13]
  mutagenic call: inactive; negative
[6]
  mutagenic call: inactive; negative
[7]
  mutagenic call: inactive; negative

## Nc1ccc(Cc2ccc(N)c(C(=O)O)c2)cc1C(=O)O
[4]
  mutagenic call: inactive; negative
Test System: AMES SALMONELLA TYPHIMURIUM, Strain/Indicator: TA98, Metabolic Activation: RAT, LIVER, S-9, PCB, Method: PREINCUBATION
  mutagenic call: inactive; negative
[1]
  mutagenic call: inactive; negative
Test System: AMES SALMONELLA TYPHIMURIUM, Strain/Indicator: TA100, Metabolic Activation: RAT, LIVER, S-9, PCB, Method: PREINCUBATION
  mutagenic call: inactive; negative

## C=CC1(C)CO1 (stereo not given)
End Point: IN VIVO MICRONUCLEUS, Test System: BONE MARROW POLYCHROMATIC ERYTHROCYTES, Species: MOUSE, Strain/Sex: C57/BL/MALE, Route: INTRAPERITONEAL INJECTION
  mutagenic call: active; positive
[10]
  mutagenic call: inactive; negative
[8]
  mutagenic call: inactive; negative

## CC(=O)OCc1cocc2c(C=O)ccc1-2
[10]
  mutagenic call: active; positive
[11]
  mutagenic call: active; positive
[8]
  mutagenic call: active; positive
[2]
  mutagenic call: active; positive
[9]
  mutagenic call: inactive; negative
[3]
  mutagenic call: inactive; negative
[12]
  mutagenic call: inactive; negative
[13]
  mutagenic call: inactive; negative

## Cc1cc2ccccc2c2ccc3c(c12)[C@H]1O[C@H]1[C@@H](O)[C@H]3O
[1]
  mutagenic call: active; positive
